From patent US6417212B1, “Modulators of peroxisome proliferator activated receptors” (Eli Lilly & Company, priority 1999, dated 2002)

Legend:
huPPARγ = target: T1, huPPARγ (Homo sapiens, UniProt P37231); test: Cotransfection assay in CV-1 cells, huPPARγ; type: cell-based; set-up: expressed in transfected cells; host or cells: CV-1 cells; conditions: AOX PPRE luciferase reporter, relative to agonist reference molecule, read-out: huPPARγ CTF Efficacy
T1 sequence (P37231 1-505): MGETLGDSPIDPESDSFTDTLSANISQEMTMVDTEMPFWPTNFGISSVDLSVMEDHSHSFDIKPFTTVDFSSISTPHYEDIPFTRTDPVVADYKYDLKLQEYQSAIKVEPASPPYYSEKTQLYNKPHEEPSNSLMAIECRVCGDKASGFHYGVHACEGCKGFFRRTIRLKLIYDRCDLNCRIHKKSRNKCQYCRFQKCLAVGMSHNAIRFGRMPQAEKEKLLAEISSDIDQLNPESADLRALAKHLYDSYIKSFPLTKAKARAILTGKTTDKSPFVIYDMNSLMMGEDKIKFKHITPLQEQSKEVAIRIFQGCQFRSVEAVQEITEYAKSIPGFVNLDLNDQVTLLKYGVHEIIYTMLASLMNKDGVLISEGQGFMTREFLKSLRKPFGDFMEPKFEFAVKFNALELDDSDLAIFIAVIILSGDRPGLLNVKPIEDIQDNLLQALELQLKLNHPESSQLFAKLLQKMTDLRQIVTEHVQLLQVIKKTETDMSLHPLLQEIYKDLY
T1 sequence (P19793 1-462 partner): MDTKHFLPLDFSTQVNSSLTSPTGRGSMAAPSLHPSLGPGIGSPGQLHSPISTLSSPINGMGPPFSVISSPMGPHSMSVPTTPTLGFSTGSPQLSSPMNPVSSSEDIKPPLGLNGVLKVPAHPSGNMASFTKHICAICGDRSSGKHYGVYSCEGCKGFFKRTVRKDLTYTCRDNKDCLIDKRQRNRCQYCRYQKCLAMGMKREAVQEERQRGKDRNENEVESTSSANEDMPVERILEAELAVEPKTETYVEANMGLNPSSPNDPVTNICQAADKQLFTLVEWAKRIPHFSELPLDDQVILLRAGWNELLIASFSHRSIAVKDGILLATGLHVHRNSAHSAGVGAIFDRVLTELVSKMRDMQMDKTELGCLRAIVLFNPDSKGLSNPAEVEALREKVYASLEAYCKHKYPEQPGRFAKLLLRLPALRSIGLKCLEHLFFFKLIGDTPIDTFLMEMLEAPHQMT
Procedure: DNA-dependent binding (ABCD binding) was carried out using SPA technology with PPAR receptors. […] Cotransfection assays were carried out in CV-1 cells. The reporter plasmid contained an acylCoA oxidase (AOX) PPRE and TK promoter upstream of the luciferase reporter cDNA. Appropriate PPARs and RXRα were constitutively expressed using plasmids containing the CMV promoter. […] In order to eliminate such interference, a GAL4 chimeric system was used in which the DNA binding domain of the transfected PPAR was replaced by that of GAL4, and the GAL4 response element was utilized in place of the AOX PPRE. […] Efficacies were determined by computer fit to a concentration-response curve, or in some cases at a single high concentration of agonist (10 μM). For binding or cotransfection studies with receptors other than PPARs, similar assays were carried out using appropriate ligands, receptors, reporter constructs, etc., for that particular receptor.
These studies were carried out to evaluate the ability of compounds of the invention to bind to and/or activate various nuclear transcription factors, particularly huPPARα (“hu” indicates “human”) and huPPARγ. These studies provide in vitro data concerning efficacy and selectivity of compounds of the invention. Furthermore, binding and cotransfection data for compounds of the invention were compared with corresponding data for marketed compounds that act on either huPPARα or huPPARγ.

db/db mice = test: Evaluation of glucose levels in db/db mice; type: in vivo; conditions: Mus musculus, 168 h; 30 mg/kg daily oral gavage for 7 days; 100% = glucose not different from lean values; read-out: Glucose Normalisation
Procedure: After an acclimation period of 2 weeks, animals were individually identified by ear notches, weighed, and bled via the tail vein for determination of initial glucose levels. Blood was collected (100 μl) from unfasted animals by wrapping each mouse in a towel, cutting the tip of the tail with a scalpel, and milking blood from the tail into a heparinized capillary tube (Fisher) balanced on the edge of the bench. Sample was discharged into a heparinized microtainer with gel separator (VWR) and retained on ice. Plasma was obtained after centrifugation at 4° C. and glucose measured immediately. Remaining plasma was frozen until the completion of the experiment, when glucose and triglycerides were assayed in all samples. Animals were grouped based on initial glucose levels and body weights. Beginning the following morning, mice were dosed daily by oral gavage for 7 days using a 20 gauge, 1½″ curved disposable feeding needle. […] On day 7, mice were weighed and bled (tail vein) 3 hours after dosing. Twenty-four hours after the 7th dose (i.e., day 8), animals were bled again (tail vein). Samples obtained from conscious animals on days 0, 7 and 8 were assayed for glucose. After the 24 hour bleed, animals were weighed and dosed for the final time. Three hours after dosing on day 8, animals were anesthetized by inhalation of isoflurane and blood obtained via cardiac puncture (0.5-0.7 ml). Whole blood was transferred to serum separator tubes, chilled on ice and permitted to clot. Serum was obtained after centrifugation at 4° C. and frozen until analysis for compound levels. After sacrifice by cervical dislocation, the liver, heart and epididymal fat pads were excised and weighed.
The absorbance of the dye produced is linearly related to the analyte in the sample. The assays were further modified in our laboratory for use in a 96 well format. […] An additional aliquot of sample, pipetted to a third well and diluted in 200 μl water, provided a blank for each specimen. […] Sample absorbances were compared to a standard curve (100-800, 10-500, and 100-400 mg/dl for glucose, triglycerides and total cholesterol, respectively). […] All samples from an experiment were assayed at the same time to minimize inter-assay variability.

Compound	Emax (huPPARγ)	inhibition in vivo at 30 mg/kg (db/db mice)
Cc1oc(-c2ccc(-c3c(F)cccc3F)cc2)nc1CCOc1ccc(OC(C)(C)C(=O)O)cc1 [Example 14, 2-(4-{2-[2-(2′,6′-Difluorobiphenyl-4-yl)-5-methyloxazol-4-yl]-ethoxy}-phenoxy)-2-methylpropionic acid]	84%	134%
Cc1oc(-c2ccc(-c3ccccc3)cc2)nc1CCOc1cccc(OC(C)(C)C(=O)O)c1 [Example 21, 2-{3-[2-(2-Biphenyl-4-yl-5-methyloxazol-4-yl)ethoxy]phenoxy}-2-methylpropionic acid]	70%	95%
Cc1sc(-c2cccc(-c3ccccc3)c2)nc1CCOc1ccc(OC(C)(C)C(=O)O)cc1 [Example 46, 2-{4-[2-(2-Biphenyl-3-yl-5-methyl-thiazol-4-yl)-ethoxy]-phenoxy}-2-methyl-propionic acid]	142%	29%
